Test results from USRE38009E1, “Zeaxanthin formulations for human ingestion” (Zeavision LLC, priority 1995, dated 2003).

Assay: Storage of purified zeaxanthin powder for roughly six months unprotected, chiral column chromatography analysis
Format: physicochemical
Conditions: relatively unprotected, normal refrigeration, no anti-oxidants, no protection from atmospheric oxygen, fresh preparation at least 98% pure
Source text: After roughly six months of storage in a relatively unprotected state (usually under normal refrigeration with moderately frequent removal; without containing any anti-oxidants, and without taking any precautions to prevent contact by atmospheric oxygen), a sample of the zeaxanthin preparation was sent for stereoisomeric analysis to Prof.

Zeaxanthin content of preparation after storage: 92%
SMILES: CC1=C(/C=C/C(C)=C/C=C/C(C)=C/C=C/C=C(C)/C=C/C=C(C)/C=C/C2=C(C)C[C@@H](O)CC2(C)C)C(C)(C)C[C@H](O)C1 [Zeaxanthin, zeaxanthin]
